Results reported in publication PMC8973347, “Discovery of novel sulphonamide hybrids that inhibit LSD1 against bladder cancer cells” (Journal of Enzyme Inhibition and Medicinal Chemistry, 2022).
Like-named read-outs stand apart in the source and are kept apart here.

What was measured:
NAMPT = test system: NAMPT; set-up: method as in PMID 30992165; settings: cited from earlier work
Hela [1] = test system: Hela; set-up: method as in PMID 30992165; settings: cited from earlier work
H1975 = test system: H1975; set-up: method as in PMID 30992165; settings: cited from earlier work
DU145 = test system: DU145; set-up: method as in PMID 30992165; settings: cited from earlier work
PC-3 cells = test system: PC-3 cells; set-up: method as in PMID 28872607; settings: read-out: IC50 against PC-3 cells; cited from earlier work
RKO = test system: RKO; set-up: method as in PMID 31181480; settings: read-out: IC50 against RKO; cited from earlier work
A2780 = test system: A2780; set-up: method as in PMID 31181480; settings: read-out: IC50 against A2780; cited from earlier work
HCT-116 = test system: HCT-116; set-up: method as in PMID 31181480; settings: read-out: IC50 against HCT-116; cited from earlier work
Hela [2] = test system: Hela; set-up: method as in PMID 31181480; settings: read-out: IC50 against Hela; cited from earlier work
MAO-B = target: T1, MAO-B (Homo sapiens, UniProt P27338); assay: MAO-A/B biochemical kit, MAO-B
T1 construct: purchased Promega
T1 sequence (P27338 1-520): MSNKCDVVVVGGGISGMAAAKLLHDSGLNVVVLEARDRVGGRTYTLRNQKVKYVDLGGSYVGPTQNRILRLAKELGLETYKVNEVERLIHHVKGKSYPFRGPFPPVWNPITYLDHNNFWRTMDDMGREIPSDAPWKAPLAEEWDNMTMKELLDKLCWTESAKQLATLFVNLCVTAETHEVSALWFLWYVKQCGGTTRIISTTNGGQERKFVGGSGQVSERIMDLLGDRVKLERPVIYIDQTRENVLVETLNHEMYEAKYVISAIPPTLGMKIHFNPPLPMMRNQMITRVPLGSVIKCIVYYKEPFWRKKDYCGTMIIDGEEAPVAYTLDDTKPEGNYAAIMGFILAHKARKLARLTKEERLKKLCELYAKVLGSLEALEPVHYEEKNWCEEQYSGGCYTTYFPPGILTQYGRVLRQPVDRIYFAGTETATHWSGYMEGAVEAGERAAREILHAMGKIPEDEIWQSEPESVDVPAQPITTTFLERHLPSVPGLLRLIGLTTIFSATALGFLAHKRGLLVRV
Source text: (§1) LSD1 inhibitor screening assay kit was purchased to evaluate for the enzyme inhibition activity of all synthetic compounds (Cayman Chemical, Fort Annapolis, MI). The MAO-A/B biochemical kit was purchased to explore the inhibitory activity against MAO-A and MAO-B (Promega, Madison, WI). […] The signal of each well was read by a GloMax Explorer (Beijing Yuanpinghao Biotechnology Co., Ltd, Beijing, China).

LSD1 = LSD1 (Homo sapiens, UniProt O60341); assay: LSD1 inhibitor screening assay kit
Source text: as §1

MAO-A = target: T2, MAO-A (Homo sapiens, UniProt P21397); assay: MAO-A/B biochemical kit, MAO-A
T2 construct: purchased Promega
T2 sequence (P21397 1-527): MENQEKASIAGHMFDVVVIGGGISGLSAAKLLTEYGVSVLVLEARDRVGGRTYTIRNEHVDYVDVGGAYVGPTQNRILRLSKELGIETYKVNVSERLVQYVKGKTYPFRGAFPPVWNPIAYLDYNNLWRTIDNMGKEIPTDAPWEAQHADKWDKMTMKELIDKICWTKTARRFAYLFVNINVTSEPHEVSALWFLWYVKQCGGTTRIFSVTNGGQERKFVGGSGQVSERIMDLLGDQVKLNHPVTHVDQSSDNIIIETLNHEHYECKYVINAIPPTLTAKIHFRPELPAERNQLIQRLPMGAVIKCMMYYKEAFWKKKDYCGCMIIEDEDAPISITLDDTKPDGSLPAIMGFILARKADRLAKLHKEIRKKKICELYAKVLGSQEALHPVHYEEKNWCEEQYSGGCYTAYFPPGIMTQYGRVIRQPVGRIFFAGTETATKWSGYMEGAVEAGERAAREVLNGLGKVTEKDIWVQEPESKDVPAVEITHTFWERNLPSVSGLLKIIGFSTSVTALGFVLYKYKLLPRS
Source text: as §1

IC50 (MAO-B) | IC50 (LSD1) | IC50 (MAO-A) | SMILES | other results
– | – | – | Cc1ccccc1NS(=O)(=O)c1cccc(CCCCCCNC(=O)/C=C/c2cccnc2)c1 [Compound 4] | IC50 (NAMPT): 0.00508 µM; antiproliferative activity against Hela cells (Hela [1]): single-digit nanomolar; antiproliferative activity against H1975 cells (H1975): single-digit nanomolar; antiproliferative activity against DU145 cells (DU145): single-digit nanomolar
– | – | – | Cc1ccc(S(=O)(=O)NCc2cn(Cc3cccc(Oc4ccccc4)c3)nn2)cc1 [Compound 5] | IC50 (PC-3 cells): 4.08 µM
– | – | – | COc1cccc(Nc2ccnc3cc(OCCCc4ccccc4)ccc23)c1 [Compound 8] | IC50 (RKO): 3.67 µM; IC50 (A2780): 3.46 µM; IC50 (HCT-116): 2.56 µM; IC50 (Hela [2]): 2.71 µM
> 120 µM | 33.8 ± 2.04 µM | > 120 µM | COc1ccc(S(=O)(=O)Nc2cccc3cccnc23)cc1OC [Compound J1, 3,4-Dimethoxy-N-(quinolin-8-yl)benzenesulphonamide] | –
> 120 µM | 45.6 ± 1.12 µM | > 120 µM | COc1ccc(S(=O)(=O)Nc2cccc3cccnc23)cc1 [Compound J2, 4-Methoxy-N-(quinolin-8-yl)benzenesulphonamide] | –
> 120 µM | 61.9 ± 2.46 µM | > 120 µM | CC(C)(C)c1ccc(S(=O)(=O)Nc2cccc3cccnc23)cc1 [Compound J3, 4-(Tert-butyl)-N-(quinolin-8-yl)benzenesulphonamide] | –
> 120 µM | 82.5 ± 3.38 µM | > 120 µM | O=S(=O)(Nc1cccc2cccnc12)c1ccccc1 [Compound J4, N-(quinolin-8-yl)benzenesulphonamide] | –
> 120 µM | 74.5 ± 2.67 µM | > 120 µM | Cc1ccc(S(=O)(=O)Nc2cccc3cccnc23)cc1 [Compound J5, 4-Methyl-N-(quinolin-8-yl)benzenesulphonamide] | –
> 120 µM | 61.8 ± 5.64 µM | > 120 µM | O=S(=O)(Nc1cccc2cccnc12)c1ccc(Br)cc1 [Compound J6, 4-Bromo-N-(quinolin-8-yl)benzenesulphonamide] | melting point: 192 to 194 °C
> 120 µM | 11.6 ± 1.92 µM | > 120 µM | COc1cc(NS(=O)(=O)c2cccc3cccnc23)cc(OC)c1OC [Compound J7, N-(3,4,5-trimethoxyphenyl)quinoline-8-sulphonamide] | –
> 120 µM | 9.63 ± 1.26 µM | > 120 µM | COc1cc(N(CCCBr)S(=O)(=O)c2cccc3cccnc23)cc(OC)c1OC [Compound K2, N-(3-bromopropyl)-N-(3,4,5-trimethoxyphenyl)quinoline-8-sulphonamide] | –
> 120 µM | 6.32 ± 0.77 µM | > 120 µM | COc1cc(N(CCCCBr)S(=O)(=O)c2cccc3cccnc23)cc(OC)c1OC [Compound K3, N-(4-bromobutyl)-N-(3,4,5-trimethoxyphenyl)quinoline-8-sulphonamide] | melting point: 103 to 104 °C
> 120 µM | 2.73 ± 0.29 µM | > 120 µM | COc1cc(N(CCSC(=S)N2CCN(C(=O)OC(C)(C)C)CC2)S(=O)(=O)c2cccc3cccnc23)cc(OC)c1OC [Compound L1, Tert-butyl-4-(((2-(N-(3,4,5-trimethoxyphenyl)quinoline-8-sulfonamido)ethyl)thio)carbonothioyl)piperazine-1-carboxylate] | melting point: 121 to 123 °C
> 120 µM | 1.39 ± 0.14 µM | > 120 µM | COc1cc(N(CCCSC(=S)N2CCN(C(=O)OC(C)(C)C)CC2)S(=O)(=O)c2cccc3cccnc23)cc(OC)c1OC [Compound L2, Tert-butyl-4-(((3-(N-(3,4,5-trimethoxyphenyl)quinoline-8-sulfonamido)propyl)thio)carbonothioyl)piperazine-1-carboxylate] | melting point: 130 to 132 °C
> 120 µM | – | > 120 µM | CCN1CCN(C(=S)SCCCCN(c2cc(OC)c(OC)c(OC)c2)S(=O)(=O)c2cccc3cccnc23)CC1 [Compound L5, 4-(N-(3,4,5-trimethoxyphenyl)quinoline-8-sulfonamido)butyl-4-ethylpiperazine-1-carbodithioate] | LSD1 activity loss, hydroxyethyl group replaced with ethyl group (LSD1; compound L8 versus L5): over 80 fold; IC50 (LSD1; read-out: IC50 (μM) LSD1): 4.92 ± 0.13 µM
> 120 µM | 0.23 ± 0.05 µM | > 120 µM | COc1cc(N(CCCCSC(=S)N2CCN(C(=O)OC(C)(C)C)CC2)S(=O)(=O)c2cccc3cccnc23)cc(OC)c1OC [Compound L6, Tert-butyl-4-(((4-(N-(3,4,5-trimethoxyphenyl)quinoline-8-sulfonamido)butyl)thio)carbonothioyl)piperazine-1-carboxylate] | melting point: 98 to 100 °C
> 120 µM | – | > 120 µM | COc1cc(N(CCCCSC(=S)N2CCN(C)CC2)S(=O)(=O)c2cccc3cccnc23)cc(OC)c1OC [Compound L7, 4-(N-(3,4,5-trimethoxyphenyl)quinoline-8-sulfonamido)butyl-4-methylpiperazine-1-carbodithioate] | IC50 (LSD1; read-out: IC50 (μM) LSD1): 0.73 ± 0.08 µM
– | – | > 120 µM | N[C@H]1CC[C@H](N[C@@H]2C[C@H]2c2ccccc2)CC1 [ORY-1001, reference compound] | –

SMILES | IC50 (MAO-B) | IC50 (LSD1) | IC50 (MAO-A) | other results
COc1cc(N(CCBr)S(=O)(=O)c2cccc3cccnc23)cc(OC)c1OC [Compound K1, N-(2-bromoethyl)-N-(3,4,5-trimethoxyphenyl)quinoline-8-sulphonamide] | > 120 µM | 14.8 ± 2.04 µM | > 120 µM | melting point: 158 to 160 °C
COc1cc(N(CCSC(=S)N2CCN(CCO)CC2)S(=O)(=O)c2cccc3cccnc23)cc(OC)c1OC [Compound L3, 2-(N-(3,4,5-trimethoxyphenyl)quinoline-8-sulfonamido)ethyl-4–(2-hydroxyethyl)piperazine-1-carbodithioate] | > 120 µM | – | > 120 µM | IC50 (LSD1; read-out: IC50 (μM) LSD1): 1.85 ± 0.07 µM
COc1cc(N(CCCSC(=S)N2CCN(CCO)CC2)S(=O)(=O)c2cccc3cccnc23)cc(OC)c1OC [Compound L4, 3-(N-(3,4,5-trimethoxyphenyl)quinoline-8-sulfonamido)propyl-4–(2-hydroxyethyl)piperazine-1-carbodithioate] | > 120 µM | – | > 120 µM | IC50 (LSD1; read-out: IC50 (μM) LSD1): 0.67 ± 0.1 µM
